According to patent publication US4990450A, “Method of producing endo-α-N-acetylgalactosaminidase from microorganisms” (Seitetsu Kagaku Co., Ltd., priority 1987, dated 1991):
Like-named read-outs stand apart in the source and are kept apart here. Blank lines part the entries; values can stand above or below the compound they belong to.

Experiments:
endo-α-GalNAcase [1] = test: Effects of inhibitors (additives) on enzyme activity; assay type: biochemical, Alcaligenes sp. F-1906
Method: (§1) The activity of this enzyme can be measured with asialofetuin as a substrate. The enzyme reaction is carried out in citrate buffer, pH 4.5, at 37° C., and then stopped by adding a borate buffer, pH 9.1, to this reaction mixture. The Gal β1→3GalNAc produced is measured by the method of Reissig. One unit of enzyme activity is defined as the amount of enzyme that releases 1 μmol of Gal β1,→3GalNAc in one minute.
The enzyme was tested for the effects of various kinds of substances.

endo-α-GalNAcase [2] = test: Substrate specificity of the enzyme; assay type: biochemical, Alcaligenes sp. F-1906
asialofetuin = test: Enzyme activity with asialofetuin as substrate (optimum pH, optimum temperature, activity of purified enzyme); assay type: biochemical
Method: as §1
(§2) The optimum pH of the enzyme reaction is 4.5-5.0 The enzyme is stable in the pH range of 4.2-6.5. thin this pH range, the activity remains about 90% or more after the enzyme is left at 1 hour at 30° C.
(§3) The optimum temperature for the enzyme reaction is 40-45° C. The temperature at which the enzyme is stable for 10 minutes when kept in a phosphate buffer, pH 6.0, is 30° C. or less. At 40° C., about 70% of the activity remains after such treatment.
Commercially available mucin from pig gastric mucosa was mixed with 1 N sulfuric acid and left for 1 hour at 80° C. for hydrolysis, which removed the sialic acid moiety of the mucin. The hydrolysate was added to the medium at the concentration of 1%. Five hundred milliliters of the medium was put into each of 40 flasks with a capacity of 2 liters, which were sterilized and were inoculated with 5 ml of pre-cultured Alcaligenes sp. F-1906. The flasks were cultured at 28° C. for 3 days. After the culture, the bacterial cells were removed by centrifugation, and the supernatant of the culture was obtained. Ammonium sulfate was added to this supernatant at 0-5° C. and the fractions that precipitated at the saturation of 40-80% ammonium sulfate were collected. This precipitate was dissolved in 0.01 M phosphate buffer, pH 6.0, and then dialyzed overnight against the same buffer. The dialysate was put on a DEAE-Sephadex® A-50 column (5.0×32.5 cm) equilibrated with 0.01 M phosphate buffer. After the column was washed with the same buffer containing 0.2 M NaCl, the enzyme was eluted with the same buffer containing 0.4 M NaCl. […]

[3] = pH and temperature stability of the enzyme; assay type: physicochemical
Method: as §2, §3

[4] = additive concentration 2.5 mM, no additive = 100
[5] = additive concentration 2.4 mM, no additive = 100
[6] = additive concentration 2.0 mM, no additive = 100

Compound: [Ca+2] [Ca]
Relative activity (endo-α-GalNAcase [1]; [4]): 109%

Compound: [Cu+2] [Cu]
Inhibition of the enzyme (endo-α-GalNAcase [1]; Table 2): 26-35%
Relative activity (endo-α-GalNAcase [1]; [4]): 74%

Inhibition of the enzyme (endo-α-GalNAcase [1]; Table 2): approximately 30%
Relative activity (endo-α-GalNAcase [1]; [5]): 68%
Compound: N[C@@H](CS)C(=O)O [Cysteine]

Relative activity (endo-α-GalNAcase [1]; [4]): 97%
Compound: O=C(O)CN(CCN(CC(=O)O)CC(=O)O)CC(=O)O [Ethylenediamine-tetraacetic acid]

Relative activity (endo-α-GalNAcase [1]; [6]): 106%
Compound: N[C@H]1C(O)O[C@H](CO)[C@H](O)[C@@H]1O (stereo partly drawn) [Galactosamine]

Relative activity (endo-α-GalNAcase [1]; [6]): 107%
Compound: OC[C@H]1OC(O)[C@H](O)[C@@H](O)[C@H]1O (stereo partly drawn) [Galactose]

Relative activity (endo-α-GalNAcase [1]; [6]): 111%
Compound: N[C@H]1C(O)O[C@H](CO)[C@@H](O)[C@@H]1O (stereo partly drawn) [Glucosamine]

Relative activity (endo-α-GalNAcase [1]; [6]): 109%
Compound: OC[C@H]1OC(O)[C@H](O)[C@@H](O)[C@@H]1O (stereo partly drawn) [Glucose]

Compound: O=C(O)CI [Iodoacetic acid]
Effect on enzyme activity (in words) (endo-α-GalNAcase [1]): almost unaffected
Relative activity (endo-α-GalNAcase [1]; endo-alpha-galnacase, pH 4.5, 2400 µM): 109%

Effect on enzyme activity (in words) (endo-α-GalNAcase [1]; Table 2): almost unaffected
Relative activity (endo-α-GalNAcase [1]; [5]): 97%
Compound: OCCS [Mercaptoethanol]

Compound: [Mn+2] [Mn]
Inhibition of the enzyme (endo-α-GalNAcase [1]; Table 2): 26-35%
Relative activity (endo-α-GalNAcase [1]; [4]): 65%

Compound: CCN1C(=O)C=CC1=O [N-Ethylmaleimide]
Effect on enzyme activity (in words) (endo-α-GalNAcase [1]; Table 2): almost unaffected
Relative activity (endo-α-GalNAcase [1]; [5]): 105%

Compound: CC(=O)N[C@H]1[C@H]([C@H](O)[C@H](O)CO)OC(O)(C(=O)O)C[C@@H]1O (stereo partly drawn) [Sialic acid]
Relative activity (endo-α-GalNAcase [1]; additive concentration 1.0 mM, no additive = 100): 106%

Compound: [Zn+2] [Zn]
Relative activity (endo-α-GalNAcase [1]; [4]): 88%

Compound: O=C(O)c1cc[c]([Hg][Cl])cc1 [p-Chloromercuribenzoic acid]
Effect on enzyme activity (in words) (endo-α-GalNAcase [1]; Table 2): almost unaffected
Relative activity (endo-α-GalNAcase [1]; [5]): 99%

Compound: asialofetuin: glycoprotein with O-glycosidic Gal β1→3GalNAc α→Ser (or Thr) sugar chains, used as substrate
Use as substrate of the enzyme (endo-α-GalNAcase [2]): can be used as substrates

Compound: endo-α-N-acetylgalactosaminidase [endo-α-GalNAcase]
Optimum pH of the enzyme reaction (asialofetuin): 4.5-5.0
Optimum temperature for the enzyme reaction (asialofetuin): 40-45 °C
relative activity of purified enzyme (asialofetuin; purified form, Example 1): 2.2 units/mg
Activity remaining ([3]; 40° C., 10 minutes in phosphate buffer, pH 6.0): about 70%
Temperature at which the enzyme is stable ([3]; 10 minutes in phosphate buffer, pH 6.0): ≤ 30 °C
pH range in which the enzyme is stable ([3]; 1 hour at 30° C.): 4.2-6.5
Activity remaining ([3]; within pH 4.2-6.5, 1 hour at 30° C.): ≥ 90%
